Values quoted from earlier work as cited in patent US12648566B2, “Solid bio-pesticidal composition comprising of elemental sulphur and azadirachtin” (SML LIMITED, priority 2021, dated 2026).

Conditions: buffer, pH 4

SMILES: C/C=C(\C)C(=O)O[C@H]1C[C@@H](OC(C)=O)[C@@]2(C(=O)OC)CO[C@H]3[C@@H](O)[C@@](C)([C@]45O[C@@]4(C)[C@H]4C[C@@H]5O[C@@H]5OC=C[C@@]54O)[C@H]4[C@]1(CO[C@]4(O)C(=O)OC)[C@@H]32 [Azadirachtin]
- laboratory half-life: 50 to 100 days
